According to patent publication US7906556B2, “Methods of treating amyloidosis using cyclopropyl derivative aspartyl protease inhibitors” (Elan Pharmaceuticals, Inc., priority 2005, dated 2011):
Several values for one entry are separate records, joined by “and”; a condition that tells them apart may be missing. Identical values can stand only once.

System: beta-secretase versus catD
Test: Selectivity of compounds for inhibiting BACE over catD (ratio of IC50 values)
Format: biochemical
Conditions: each value is an average of four experimental runs; multiple values = more than one experiment
Experimental: Investigation of potential beta-secretase inhibitors produced compounds with increased selectivity for beta-secretase over other aspartyl proteases such as cathepsin D (catD), cathepsin E (catE), Human Immunodeficiency Viral (HIV) protease, and renin. Selectivity was calculated as a ratio of inhibition (IC50) values in which the inhibition of beta-secretase was compared to the inhibition of other aspartyl proteases.
The compounds of formula (I) can be selective for beta-secretase versus catD.
In the following examples, each value is an average of four experimental runs and multiple values for one compound indicate that more than one experiment was conducted.

Selectivity IC50 catD/IC50 BACE	SMILES
> 3.7 and > 3.2	CC(=O)NC(Cc1cc(F)cc(F)c1)C(O)CNC1(CCC(C)C)C2CCCC21 (stereo not drawn) [Example 3.1, N-(4-(6-isopentylbicyclo[3.1.0]hexan-6-ylamino)-1-(3,5-difluorophenyl)-3-hydroxybutan-2-yl)acetamide]
1.1	CC(=O)NC(Cc1cc(F)cc(F)c1)C(O)CNC1(CCCC(C)C)CC1 (stereo not drawn) [Example 3.2, N-(1-(3,5-difluorophenyl)-3-hydroxy-4-(1-(4-methylpentyl)cyclopropylamino)butan-2-yl)acetamide]

System: not listed separately
Test: In vitro permeability across a monolayer of MDCK cells in a transwell device
Format: in vitro ADME, Canine
Conditions: dog, MDCK, test compound 5 μM, 2 h at 37° C., apical to basolateral, read-out: Permeability Forward A > B
Experimental: (§1) Compounds were evaluated for permeability across a monolayer of Madin-Darby Canine Kidney (MDCK) cells in a transwell device following culturing for 4 days. Cells were grown in Dulbecco's Modified Eagle Media with Glutamax (Invitrogen Cat #10569-010) with 10% Heat Inactivated Fetal Bovine Serum (media kitchen) and Penicillin/streptomycin 40 units/mL (media kitchen) at 37° C. and 5% CO2, and were plated into 12 mm diameter transwell plates (12 wells/plate, Costar Cat#3401). A 0.5 mL of cell suspension (400,000 cells/mL) was placed on membrane and a 1.5 mL media in the bottom wells on day 1. On day 2 and day 3, cells were fed with new media. On day 4, the lower chambers were filled with modified Hank's Balanced Salt Solution (mHBSS, media kitchen) with or without 5 μM Cyclosporin A (CspA, Sigma Cat#C-3662). Media was removed from upper chambers and filled with mHBSS with or without CspA, and incubated 30 min at 37° C. with light shaking. Donor chambers were emptied, and filled with test compound at 5 μM in mHBSS. Lucifer Yellow (100 μM, LY, Sigma Cat#L-0144) was added to all of the upper chambers to test for monolayer integrity (tight junctions). Plates were incubated for 2 h at 37° C. with shaking. After 2 h, both the donor and receiver wells were sampled. The bottom chambers were read in a fluorometer to assess LY leakage, and then the media from all wells were assayed by LC/MS/MS to determine compound levels.

SMILES	Papp A→B at 2 h, 5 μM [×10⁻⁶ cm/s]
CC(=O)NC(Cc1cc(F)cc(F)c1)C(O)CNC1(CSCC(C)(C)C)CC1 (stereo not drawn) [Example 3.3, N-(4-(1-((neopentylthio)methyl)cyclopropylamino)-1-(3,5-difluorophenyl)-3-hydroxybutan-2-yl)acetamide]	10.1
CC(=O)NC(Cc1cc(F)cc(F)c1)C(O)CNC1(Cc2cn(CC(C)(C)C)nn2)CC1 (stereo not drawn) [Example 3.6, N-(1-(3,5-difluorophenyl)-3-hydroxy-4-(1-((1-neopentyl-1H-1,2,3-triazol-4-yl)methyl)cyclopropylamino)butan-2-yl)acetamide]	4.31
CC(=O)NC(Cc1cc(F)cc(F)c1)C(O)CNC1(COCCC(C)(C)C)C2CCCC21 (stereo not drawn) [Example 3.9, N-(1-(3,5-difluorophenyl)-4-(6-((3,3-dimethylbutoxy)methyl)bicyclo[3.1.0]hexan-6-ylamino)-3-hydroxybutan-2-yl)acetamide]	4.73
CC(=O)NC(Cc1cc(F)cc(F)c1)C(O)CNC1(Cc2cc(C(C)(C)C)on2)CC1 (stereo not drawn) [Example 3.10, N-(4-(1-((5-tert-butylisoxazol-3-yl)methyl)cyclopropylamino)-1-(3,5-difluorophenyl)-3-hydroxybutan-2-yl)acetamide]	9.32
CC(=O)NC(Cc1cc(F)cc(F)c1)C(O)CNC1(C/C=C/CC(C)(C)C)CC1 (stereo not drawn) [Example 3.12, N-(1-(3,5-difluorophenyl)-4-(1-(5,5-dimethylhex-2-enyl)cyclopropylamino)-3-hydroxybutan-2-yl)acetamide]	4.28
CC(=O)NC(Cc1cc(F)cc(F)c1)C(O)CNC1(CCCCn2cccn2)CC1 (stereo not drawn) [Example 3.14, N-(4-(1-(4-(1H-pyrazol-1-yl)butyl)cyclopropylamino)-1-(3,5-difluorophenyl)-3-hydroxybutan-2-yl)acetamide]	3.47
CC(=O)NC(Cc1cc(F)cc(F)c1)C(O)CNC1(CCOCC(C)(C)C)CC1 (stereo not drawn) [Example 3.15, N-(4-(1-(2-(neopentyloxy)ethyl)cyclopropylamino)-1-(3,5-difluorophenyl)-3-hydroxybutan-2-yl)acetamide]	9.74
CC(=O)NC(Cc1cc(F)cc(F)c1)C(O)CNC1(C(=O)N(C)c2ccccc2)CC1 (stereo not drawn) [Example 3.18, 1-(3-acetamido-4-(3,5-difluorophenyl)-2-hydroxybutylamino)-N-methyl-N-phenylcyclopropanecarboxamide]	4.56
CC(=O)NC(Cc1cc(F)cc(F)c1)C(O)CNC1(Cc2c(F)cccc2F)CC1 (stereo not drawn) [Example 3.19, N-(4-(1-(2,6-difluorobenzyl)cyclopropylamino)-1-(3,5-difluorophenyl)-3-hydroxybutan-2-yl)acetamide]	19.1

Now from value to compound:

Papp A→B at 2 h, 5 μM [×10⁻⁶ cm/s]	SMILES
8.18	CC(=O)NC(Cc1cc(F)cc(F)c1)C(O)CNC1(CCOCC(C)(C)C)CC1C (single isomer, unassigned) [Example 3.7, N-(4-(2-methyl-1-(2-(neopentyloxy)ethyl)cyclopropylamino)-1-(3,5-difluorophenyl)-3-hydroxybutan-2-yl)acetamide]
4.33	CC(=O)NC(Cc1cc(F)cc(F)c1)C(O)CNC1(CCCC(C)C)CC1 (stereo not drawn) [Example 3.2, N-(1-(3,5-difluorophenyl)-3-hydroxy-4-(1-(4-methylpentyl)cyclopropylamino)butan-2-yl)acetamide]
3.33	CC(=O)NC(Cc1cc(F)cc(F)c1)C(O)CNC1(C(=O)NCCC(C)(C)C)CC1 (stereo not drawn) [Example 3.4, 1-(3-acetamido-4-(3,5-difluorophenyl)-2-hydroxybutylamino)-N-(3,3-dimethylbutyl)cyclopropanecarboxamide]
3.31	CC(=O)NC(Cc1cc(F)cc(F)c1)C(O)CNC1(CCCCC(C)(C)C)CC1 (stereo not drawn) [Example 3.11, N-(1-(3,5-difluorophenyl)-4-(1-(5,5-dimethylhexyl)cyclopropylamino)-3-hydroxybutan-2-yl)acetamide]
4.39	CC(=O)NC(Cc1cc(F)cc(F)c1)C(O)CNC1(CCCn2cccn2)CC1 (stereo not drawn) [Example 3.13, N-(4-(1-(3-(1H-pyrazol-1-yl)propyl)cyclopropylamino)-1-(3,5-difluorophenyl)-3-hydroxybutan-2-yl)acetamide]
6.15	CC(=O)NC(Cc1cc(F)cc(F)c1)C(O)CNC1(C(=O)NCC(C)(C)C)CC1 (stereo not drawn) [Example 3.16, 1-(3-acetamido-4-(3,5-difluorophenyl)-2-hydroxybutylamino)-N-neopentylcyclopropanecarboxamide]
21.2	CC(=O)NC(Cc1cc(F)cc(F)c1)C(O)CNC1(Cc2ccccc2F)CC1 (stereo not drawn) [Example 3.20, N-(1-(3,5-difluorophenyl)-4-(1-(2-fluorobenzyl)cyclopropylamino)-3-hydroxybutan-2-yl)acetamide]

System: Madin-Darby Canine Kidney (MDCK) cells
Test: as above
Format: in vitro ADME
Conditions: test compound 5 μM, 2 h at 37° C., apical to basolateral
Experimental: as §1

Permeability Forward A > B [nm/s]	SMILES
118.4	CC(=O)NC(Cc1cc(F)cc(F)c1)C(O)CNC1(CCOCC(C)(C)C)CC1C (single isomer, unassigned) [Example 3.8, N-(4-(2-methyl-1-(2-(neopentyloxy)ethyl)cyclopropylamino)-1-(3,5-difluorophenyl)-3-hydroxybutan-2-yl)acetamide]
45.6	CC(=O)NC(Cc1cc(F)cc(F)c1)C(O)CNC1(C(=O)NCCC(C)(C)C)CC1 (stereo not drawn) [Example 3.4, 1-(3-acetamido-4-(3,5-difluorophenyl)-2-hydroxybutylamino)-N-(3,3-dimethylbutyl)cyclopropanecarboxamide]

Target: T1, P-gp (Mus musculus, UniProt P21447)
T1 construct: FVB wild-type littermates, which expresses P-gp at their blood-brain barrier (BBB); from tissue; host or cells: blood-brain barrier / brain of FVB wild-type mice, compared with mdr1 a/b (-/-) mice, in vivo
T1 sequence (P21447 whole entry): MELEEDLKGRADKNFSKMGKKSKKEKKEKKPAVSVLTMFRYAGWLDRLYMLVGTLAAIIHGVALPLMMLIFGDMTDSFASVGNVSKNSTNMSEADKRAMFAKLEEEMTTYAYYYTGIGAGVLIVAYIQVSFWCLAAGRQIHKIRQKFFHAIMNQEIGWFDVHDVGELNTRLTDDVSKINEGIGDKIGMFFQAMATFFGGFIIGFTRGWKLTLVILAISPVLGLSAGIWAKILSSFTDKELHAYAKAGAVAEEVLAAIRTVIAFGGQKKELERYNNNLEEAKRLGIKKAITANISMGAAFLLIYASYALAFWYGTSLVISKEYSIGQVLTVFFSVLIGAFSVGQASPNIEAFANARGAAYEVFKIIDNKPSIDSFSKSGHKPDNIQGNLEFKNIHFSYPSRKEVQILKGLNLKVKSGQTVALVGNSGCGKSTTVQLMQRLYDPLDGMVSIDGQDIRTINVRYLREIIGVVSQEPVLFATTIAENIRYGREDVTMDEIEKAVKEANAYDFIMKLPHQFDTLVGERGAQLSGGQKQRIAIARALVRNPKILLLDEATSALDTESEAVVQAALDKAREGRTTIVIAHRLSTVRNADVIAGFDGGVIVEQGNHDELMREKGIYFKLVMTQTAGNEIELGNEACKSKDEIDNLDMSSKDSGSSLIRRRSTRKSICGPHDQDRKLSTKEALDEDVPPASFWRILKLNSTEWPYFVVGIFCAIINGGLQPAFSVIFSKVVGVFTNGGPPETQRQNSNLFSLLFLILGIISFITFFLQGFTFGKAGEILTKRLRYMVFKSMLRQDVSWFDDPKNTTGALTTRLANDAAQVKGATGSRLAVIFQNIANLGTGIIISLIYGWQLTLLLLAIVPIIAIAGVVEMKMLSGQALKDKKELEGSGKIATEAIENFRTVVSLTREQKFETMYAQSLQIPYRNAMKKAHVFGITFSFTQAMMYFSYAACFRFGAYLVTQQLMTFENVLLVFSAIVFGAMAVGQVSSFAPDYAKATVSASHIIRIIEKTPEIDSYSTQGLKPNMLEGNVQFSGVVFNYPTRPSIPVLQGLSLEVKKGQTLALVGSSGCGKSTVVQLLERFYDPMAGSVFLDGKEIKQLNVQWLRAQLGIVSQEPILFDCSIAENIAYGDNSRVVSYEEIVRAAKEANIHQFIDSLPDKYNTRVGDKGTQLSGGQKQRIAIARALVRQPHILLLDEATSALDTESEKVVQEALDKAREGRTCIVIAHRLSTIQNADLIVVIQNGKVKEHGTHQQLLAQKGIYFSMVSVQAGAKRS
Test: In vivo P-gp liability assessment in mdr1 a/b (-/-) and wild type FVB mouse
Conditions: mdr1 a/b (-/-) vs FVB wild-type mice, 2.5 mg/Kg IV, 5 min post administration, ratio of Cb/Cp
Experimental: Use of mdr1 (−/−) mouse and its FVB wild-type littermates, which expresses P-gp at their blood-brain barrier (BBB), can distinguish between a test compound of high P-gp liability from one with a more desirable low P-gp liability.
Test compounds are administered to both the mdr1 a/b (−/−) and the FVB wild-type mice (N=4/strain) intravenously at 2.5 mg/Kg through the tail vein. Plasma and brains are harvested at 5 min post administration. Test compound is extracted from tissue in parallel with calibration curves prepared from age-matched control tissues, then quantitated by LC/MS/MS. The ratio of brain concentration (Cb) to plasma concentration (Cp) is used as a measure of brain penetration according to the following formula: Brain Penetration (P)=Cb/Cp Therefore, a measure of brain penetration in the mdr1 (−/−) mouse relative to that of the wild-type animal represents an assessment of in vivo P-gp efflux, which is analogous to that determine in vitro with MDR1-MDCK cells. Calculations are made according to the following formula: Pmdr1/PFVB=In vivo Efflux

in vivo P-gp efflux (Pmdr1/PFVB)	SMILES
1.17	CNCC[C@@H](Oc1ccccc1C)c1ccccc1 [atomoxetine]

System: not listed separately
Test: Brain to plasma ratio (AUC 0-6 h) in female FVB mice
Format: in vivo
Conditions: 100 mpk dose

Brain AUC (0-6 h) [µM·h]	SMILES
28	CC(=O)NC(Cc1cc(F)cc(F)c1)C(O)CNC1(CCCC(C)(C)C)CC1 (stereo not drawn) [Example 3.5, N-(1-(3,5-difluorophenyl)-4-(1-(4,4-dimethylpentyl)cyclopropylamino)-3-hydroxybutan-2-yl)acetamide]

Same assay, conditions: mouse, brain and plasma, 100 mg/kg, 100 mpk dose, AUC (0-6 h)

Kp	SMILES
2.1	CC(=O)NC(Cc1cc(F)cc(F)c1)C(O)CNC1(CCCC(C)(C)C)CC1 (stereo not drawn) [Example 3.5, N-(1-(3,5-difluorophenyl)-4-(1-(4,4-dimethylpentyl)cyclopropylamino)-3-hydroxybutan-2-yl)acetamide]

Same assay, conditions: mouse, plasma, 100 mg/kg, 100 mpk dose

AUC(0-t) [µM·h]	SMILES
13	CC(=O)NC(Cc1cc(F)cc(F)c1)C(O)CNC1(CCCC(C)(C)C)CC1 (stereo not drawn) [Example 3.5, N-(1-(3,5-difluorophenyl)-4-(1-(4,4-dimethylpentyl)cyclopropylamino)-3-hydroxybutan-2-yl)acetamide]
